Test results: US10435400B2, “2,4-disubstituted phenylene-1,5-diamine derivatives and applications thereof, and pharmaceutical compositions and pharmaceutically acceptable compositions prepared therefrom” (SHANGHAI HAIYAN PHARMACEUTICAL TECHNOLOGY CO., LTD., priority 2014, dated 2019)
Like-named read-outs stand apart in the source and are kept apart here.

Tests used:
H1975 cells [1] = assay: ELISA screening EGFR T790M inhibitor for cell activity, H1975 cells; type: cell-based; settings: ELISA; for Selective inhibitory activities of target on cellular level [IC50 (A431 cells)/IC50 (H1975 cells)]: ratio of IC50 values; for IC50: compound 1 h, read-out: H1975 cells (IC50/nM)
A431 cells [2] = assay: Cytostatic activity by MTT method, A431 cells; settings: read-out: A431 cells (IC50/nM);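 further: viability read by MTT reduction after compound exposure, with MTT incubated for a further 4 h at 37 °C under 5% CO2 in 96-well plates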
H1975 cells [3] = assay: Cytostatic activity by MTT method, H1975 cells; type: cell-based; settings: MTT; for IC50: 72 h, read-out: H1975 cells (IC50/nM); for selective inhibitory activity against the cell growth [IC50 (A431 cells)/IC50 (H1975 cells)]: ratio of IC50 values
EGFR WT kinase = EGFR WT kinase (Homo sapiens (Human), UniProt P00533); assay: Wild type EGFR kinase inhibition test (z-lyte); type: biochemical; settings: 10 μM ATP
EGFR WT kinase, sequence (P00533 25-1210): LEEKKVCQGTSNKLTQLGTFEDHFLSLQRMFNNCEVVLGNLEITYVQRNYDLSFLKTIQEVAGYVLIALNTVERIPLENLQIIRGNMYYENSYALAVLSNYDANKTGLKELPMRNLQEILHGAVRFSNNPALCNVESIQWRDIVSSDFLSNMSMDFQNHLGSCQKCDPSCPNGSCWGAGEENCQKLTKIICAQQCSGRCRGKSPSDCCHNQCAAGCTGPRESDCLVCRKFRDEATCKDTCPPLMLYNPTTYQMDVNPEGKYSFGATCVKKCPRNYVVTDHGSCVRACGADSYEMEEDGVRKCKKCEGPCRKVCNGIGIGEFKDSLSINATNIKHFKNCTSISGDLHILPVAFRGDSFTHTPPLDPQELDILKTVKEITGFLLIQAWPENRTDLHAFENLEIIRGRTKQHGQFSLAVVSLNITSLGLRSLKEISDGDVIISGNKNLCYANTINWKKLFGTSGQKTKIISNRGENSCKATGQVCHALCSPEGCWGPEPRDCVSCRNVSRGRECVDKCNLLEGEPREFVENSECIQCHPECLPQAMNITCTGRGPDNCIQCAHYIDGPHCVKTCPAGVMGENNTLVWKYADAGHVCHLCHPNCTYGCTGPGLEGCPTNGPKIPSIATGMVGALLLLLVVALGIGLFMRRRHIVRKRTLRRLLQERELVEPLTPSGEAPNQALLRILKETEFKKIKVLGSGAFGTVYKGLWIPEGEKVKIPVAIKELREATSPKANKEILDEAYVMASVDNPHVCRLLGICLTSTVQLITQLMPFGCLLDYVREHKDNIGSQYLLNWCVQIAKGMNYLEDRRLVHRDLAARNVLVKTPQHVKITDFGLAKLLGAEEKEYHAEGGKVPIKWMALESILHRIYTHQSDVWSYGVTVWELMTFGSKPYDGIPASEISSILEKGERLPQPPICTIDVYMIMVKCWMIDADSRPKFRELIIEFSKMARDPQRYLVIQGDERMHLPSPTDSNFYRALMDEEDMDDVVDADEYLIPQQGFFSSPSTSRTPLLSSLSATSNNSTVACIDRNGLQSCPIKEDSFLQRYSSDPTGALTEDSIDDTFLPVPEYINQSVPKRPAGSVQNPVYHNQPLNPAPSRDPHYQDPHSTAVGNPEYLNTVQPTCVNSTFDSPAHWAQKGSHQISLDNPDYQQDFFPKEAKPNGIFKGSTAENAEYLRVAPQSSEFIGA

A431 cells [4] = assay: ELISA cell activity, EGF-stimulated A431 cells; type: cell-based; settings: ELISA, compound 1 h then EGF 45 minutes, read-out: A431 cells (IC50/nM);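 further: Serum-starved A431 cells pretreated with compound for 1 h, then stimulated with EGF for 45 min, lysates read by ELISA (OD450 minus OD570), EGF-only wells as control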
NIH3T3 cells = assay: Cytotoxicity by MTT method, NIH3T3 cells; type: cell-based; settings: cytotoxicity, MTT, 72 h, read-out: NIH3T3 cells MTT assay (IC50/nM);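 further: cells grown in 96-well plates with compound for 72 h, then given MTT for a further 4 h at 37 °C under 5% CO2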

Selective inhibitory activities of target on cellular level [IC50 (A431 cells)/IC50 (H1975 cells)] (H1975 cells [1]) | IC50 (H1975 cells [1]; Homo sapiens, NCI-H1975) [nM] | IC50 (A431 cells [2]; Homo sapiens, A-431, 72 h) [nM] | IC50 (H1975 cells [3]; Homo sapiens, NCI-H1975) [nM] | selective inhibitory activity against the cell growth [IC50 (A431 cells)/IC50 (H1975 cells)] (H1975 cells [3]) | IC50 (EGFR WT kinase) [nM] | IC50 (A431 cells [4]; Homo sapiens, A-431) [nM] | IC50 (H1975 cells [1]) [nM] | IC50 (A431 cells [2]; MTT, 72 h) [nM] | IC50 (H1975 cells [3]) [nM] | IC50 (A431 cells [4]) [nM] | SMILES | IC50 (NIH3T3 cells; Mus musculus, NIH3T3) [nM] | IC50 (NIH3T3 cells) [nM]
5.7 | 34 | 773 | 17 | 45.5 | 10 | 194 | – | – | – | – | C=CC(=O)Nc1cc(Nc2nccc(-c3cnc4c(cnn4C)c3)n2)c(OC)cc1N(C)CCN(C)C [Compound Z-6, N-(2-((2-(dimethylamino)ethyl)(methyl)amino)-4-methoxy-5-(4-(1-methyl-1H-pyrazolo[3,4-b]pyridin-5-yl)pyrimidin-2-ylamino)phenyl)acrylamide] | – | –
15.3 | 10 | 871 | 9 | 97 | 4 | 153 | – | – | – | – | C=CC(=O)Nc1cc(Nc2nccc(-c3cnc4c(ccn4C)c3)n2)c(OC)cc1N(C)CCN(C)C [Compound Z-16, N-(2-((2-(dimethylamino)ethyl)(methyl)amino)-4-methoxy-5-((4-(1-methyl-1H-pyrrolo[2,3-b]pyridin-5-yl)pyrimidin-2-yl)amino)phenyl)acrylamide] | > 10000 | –
– | 21 | 757 | 22 | – | – | 675 | – | – | – | – | C=CC(=O)Nc1cc(Nc2ncc(Cl)c(-c3cnn(C)c3)n2)c(OC)cc1N(C)CCN(C)C [Compound Z-19, N-(5-((5-chloro-4-(1-methyl-1H-pyrazol-4-yl)pyrimidin-2-yl)amino)-2-((2-(dimethylamino)ethyl)(methyl)amino)-4-methoxyphenyl)acrylamide] | 4510 | –
53.6 | 23 | 1900 | 29 | 65.5 | 57 | 1230 | – | – | – | – | C=CC(=O)Nc1cc(Nc2ncc(C(F)(F)F)c(-c3cnc4c(ccn4C)c3)n2)c(OC)cc1N(C)CCN(C)C [Compound Z-22, N-(2-((2-(dimethylamino)ethyl)(methyl)amino)-4-methoxy-5-((4-(1-methyl-1H-pyrrolo[2,3-b]pyridin-5-yl)-5-(trifluoromethyl)pyrimidin-2-yl)amino)phenyl)acrylamide] | – | –
21.7 | – | – | – | 50.1 | 19 | – | 44 | 2480 | 49 | 955 | C=CC(=O)Nc1cc(Nc2nccc(-c3cnc4c(ccn4C)c3)n2)c(OC)cc1N1CC(N(C)C)C1 [Compound Z-27] | – | 7960
– | – | – | – | 44.4 | – | – | – | 1110 | 25 | – | C=CC(=O)Nc1cc(Nc2nccc(-c3cnc4[nH]ccc4c3)n2)c(OC)cc1N(C)CCN(C)C [Compound Z-30] | – | 5790
16.1 | – | – | – | 57.4 | 33 | – | 41 | 918 | 16 | 660 | C=CC(=O)Nc1cc(Nc2ncc(Cl)c(-c3cnc4c(cnn4C)c3)n2)c(OC)cc1N(C)CCN(C)C [Compound Z-39] | – | 8890
– | – | – | – | 56.7 | 30 | – | – | 1810 | 32 | – | C=CC(=O)Nc1cc(Nc2ncc(OC)c(-c3cnc4c(cnn4C)c3)n2)c(OC)cc1N(C)CCN(C)C [Compound Z-44] | – | 8880
– | – | – | – | – | 21 | – | 15 | 660 | – | 200 | C=CC(=O)Nc1cc(Nc2ncc(Cl)c(-c3cnn(C)c3C)n2)c(OC)cc1N(C)CCN(C)C [Compound Z-55] | – | 5420
36.4 | 90 | 3610 | 36 | 100.3 | 195 | 3280 | – | – | – | – | C=CC(=O)Nc1cc(Nc2ncc(Cl)c(-c3c(C)nn(C)c3C)n2)c(OC)cc1N(C)CCN(C)C [Compound Z-91, N-(5-(5-chloro-4-(1,3,5-trimethyl-1H-pyrazol-4-yl)pyrimidin-2-ylamino)-2-((2-(dimethylamino)ethyl)(methyl)amino)-4-methoxyphenyl)acrylamide] | > 10000 | –
23.3 | 16 | 645 | 8 | 80.6 | 20 | 372 | – | – | – | – | C=CC(=O)Nc1cc(Nc2ncc(Cl)c(-c3cn(C)nc3C)n2)c(OC)cc1N(C)CCN(C)C [Compound Z-94, N-(5-(5-chloro-4-(1,3-dimethyl-1H-pyrazol-4-yl)pyrimidin-2-ylamino)-2-((2-(dimethylamino)ethyl)(methyl)amino)-4-methoxyphenyl)acrylamide] | > 10000 | –
– | – | 1640 | 108 | 15.2 | 407 | – | – | – | – | – | C=CC(=O)Nc1cc(Nc2ncc(Cl)c(-c3ccn(C)c3)n2)c(OC)cc1N1CCC(N(C)C)CC1 [Compound Z-98, N-(5-(5-chloro-4-(1-methyl-1H-pyrrol-3-yl)pyrimidin-2-ylamino)-2-(4-(dimethylamino)piperidin-1-yl)-4-methoxyphenyl)acrylamide] | 4360 | –
– | 11 | 597 | 15 | – | – | 1020 | – | – | – | – | C=CC(=O)Nc1cc(Nc2ncc(Cl)c(-c3cn[nH]c3)n2)c(OC)cc1N1CCC(N(C)C)CC1 [Compound Z-102, N-(5-(5-chloro-4-(1H-pyrazol-4-yl)pyrimidin-2-ylamino)-2-(4-(dimethylamino)piperidin-1-yl)-4-methoxyphenyl)acrylamide] | – | –
16.1 | – | – | – | 52.7 | 4 | – | 12 | 685 | 13 | 193 | C=CC(=O)Nc1cc(Nc2nccc(-c3cnc4c(ccn4C)c3)n2)c(OC)cc1N(C)CCNC [Compound Z-106] | – | –
15.5 | – | – | – | 38.2 | 16 | – | 55 | 1410 | 37 | 855 | C=CC(=O)Nc1cc(Nc2nccc(-c3cnc4c(ccn4C)c3)n2)c(OC)cc1N(C)CCN(CC)CC [Compound Z-107] | – | –
– | – | – | – | 37.7 | – | – | – | 2900 | 77 | – | C=CC(=O)Nc1cc(Nc2nccc(-c3cnc4c(ccn4C)c3)n2)c(OC)cc1N(C)CCCN(C)C [Compound Z-108] | – | 3620
6.3 | – | – | – | – | 22 | – | 77 | – | – | 486 | C=CC(=O)Nc1cc(Nc2nccc(-c3cnc4c(ccn4C)c3)n2)c(OC)cc1N(C)CCN1CCCC1 [Compound Z-112] | – | > 10000
22.8 | – | – | – | – | 121 | – | 99 | – | – | 2250 | C=CC(=O)Nc1cc(Nc2ncc(Cl)c(-c3cnc4c(ccn4C)c3)n2)c(OC)cc1N1CC(N(C)C)C1 [Compound Z-113] | – | 5320
– | – | – | – | 40.2 | 3 | – | – | 1040 | 26 | – | C=CC(=O)Nc1cc(Nc2ncc(F)c(-c3cnc4c(c3)c(Cl)cn4C)n2)c(OC)cc1N(C)CCN(C)C [Compound Z-123] | – | 4740
– | – | – | – | 46.8 | 13 | – | – | 1780 | 38 | – | C=CC(=O)Nc1cc(Nc2nccc(-c3cnc4c(ccn4C(C)C)c3)n2)c(OC)cc1N(C)CCN(C)C [Compound Z-124] | – | 3240
0.83 | 241 | 6660 | 277 | 24 | – | 199 | – | – | – | – | C=CC(=O)Nc1cc(Nc2nccc(-c3cccnc3)n2)c(OC)cc1N1CCC(N(C)C)CC1 [compound 2, reference compound] | – | –
2.7 | 1140 | 2970 | 437 | 6.8 | – | 3110 | – | – | – | – | C=CC(=O)Nc1cc(Nc2ncc(OC)c(-c3cnc4ccccc4c3)n2)c(OC)cc1N1CCC(N(C)C)CC1 [compound 3, reference compound] | – | –
